Data on 19 compounds can be found in US10851065B2 (Eisai R&D Management Co., Ltd., priority 2015, dated 2020).

For assay [1], the system named is MCF7-WT cells (MCF7 ER-alpha wildtype). In words: In vitro proliferation (viability) assay, CellTiter-Glo, MCF7-WT cells. It is filed as cell-based. Conditions: Homo sapiens; MCF7-WT cells, 6 days, CTG vs day 0; mean ± SD-type spread (n); read-out: GI50 WT. The procedure:
(§1) MCF7 BUS cells (Coser, et al., (2003) PNAS 100(24): 13994-13999) were maintained in Dulbecco's Modified Eagle Medium supplemented with 10% FBS, 4 mM L-glutamine and 1× non-essential amino acids. Lenti-X 293T cells (Clontech, Cat #632180) were routinely cultured in Dulbecco's Modified Eagle Medium supplemented with 10% FBS.
(§2) The QuikChange II XL Site-Directed Mutagenesis Kit (Agilent Technologies, Cat #200523) was used to generate Y537S, Y537C, Y537N and D538G mutations within the ERα exon 8. Wild-type ESR1 cDNA (GeneCopoeia Inc., Cat #GC-A0322, accession no. NM 000125) was used as a template with the following mutagenesis primers (where the underlined nucleotides represent site mutations); Y537S: F-AAGAACGTGGTGCCCCTCTCTGACCTGCTGCTGGAGATG (SEQ ID NO: 1), R-CATCTCCAGCAGCAGGTCAGAGAGGGGCACCACGTTCTT (SEQ ID NO: 2); Y537N: F-AAGAACGTGGTGCCCCTCAATGACCTGCTGCTGGAGATG (SEQ ID NO: 3), R-CATCTCCAGCAGCAGGTCATTGAGGGGCACCACGTTCTT (SEQ ID NO: 4); Y537C: F-AAGAACGTGGTGCCCCTCTGTGACCTGCTGCTGGAGATG (SEQ ID NO: 5), R-CATCTCCAGCAGCAGGTCACAGAGGGGCACCACGTTCTT (SEQ ID NO: 6); D538G: F-AACGTGGTGCCCCTCTATGGCCTGCTGCTGGAGATGCTG (SEQ ID NO: 7), R-CAGCATCTCCAGCAGCAGGCCATAGAGGGGCACCACGTT (SEQ ID NO: 8). WT and mutant ESR1 cDNAs were cloned into the designation lentiviral vector pLenti6.3/V5-Dest (Invitrogen, Cat #V533-06). To make lentivirus, DNAs (WT and mutant ESR1) were co-transfected with packaging plasmids into Lenti-X 293T cells using TransIT (Mirus, Cat #MIR 2700). 48 h post-transfection, virus containing media was filtered and added to MCF7 cells in the presence of 8 µg/ml polybrene overnight. Two days following infection, cells were placed under selection with 10 μg/ml blasticidin for 2 weeks for stable expression.
(§3) MCF7-WT and -Y537S cells were seeded at 1500 cells/well in black-walled 96-well plates (assay plates, Costar, Cat #3904). In parallel, cells were also seeded in a separate 96-well plate (8 wells/cell line, control plate) for which a CTG (CellTiter-Glo® Luminescent Viability Assay, Promega, Cat #G7572) was measured the following day (day 0 reading). The day 0 reading was used for the GI50 calculation at the termination of the experiment. The day following seeding, compounds were added to assay plates. Briefly, a 1:4 serial dilution was prepared in DMSO at 200× final concentration for a total of 10 concentrations (9 dilutions containing compound and one is DMSO only). Serially diluted compounds were pipetted into medium to prepare a compound-medium mix at 10× final concentration. 10 μl of compound-medium mix was added to MCF7-WT and -Y537S cells at 3 wells/concentration (triplicate for each concentration). On day 3, media/compound was removed and replaced with fresh media/compound as described above. On day 6, CTG was measured and compared to day 0 readings from control plate to assess GI50.
A general note: Cellular ATP, detected with luciferase, serves as a proxy for viable cell number.

In assay [2] the test system is MCF7-Y537S cells (MCF7 ER-alpha Y537S mutant). As to the kind of experiment: In vitro proliferation (viability) assay, CellTiter-Glo, MCF7-Y537S cells. It is filed as cell-based. Conditions: Homo sapiens; MCF7-Y537S cells, 6 days, CTG vs day 0; mean ± SD-type spread (n); read-out: GI50 MUT (Y537S). The procedure:
as §1, §2, §3

Broadly, the GI50 is the concentration at which growth is held to half of that of the control.

Consider `CC/C(=C(/c1ccc(OCCNC/C=C/C(=O)N(C)C)cc1)c1ccc2[nH]nc(F)c2c1)c1ccccc1` [Compound 2, (E)-4-((2-(4-((E)-1-(3-fluoro-1H-indazol-5-yl)-2-phenylbut-1-en-1-yl)phenoxy)ethyl)amino)-N,N-dimethylbut-2-enamide], for which the GI50 in assay [1] is 5.56 ± 2.84 nM; in assay [2], 64.8 ± 37.2 nM.

Turning to `CC/C(=C(/c1ccc(OCCNC/C=C/C(=O)N(C)C)cc1)c1ccc2[nH]nc(F)c2c1)c1cc(F)cc(C(F)(F)F)c1` [Compound 3, (E)-4-((2-(4-((E)-1-(3-fluoro-1H-indazol-5-yl)-2-(3-fluoro-5-(trifluoromethyl)phenyl)but-1-en-1-yl)phenoxy)ethyl)amino)-N,N-dimethylbut-2-enamide], the GI50 in assay [1] stood at 6.95 ± 2.47 nM; in assay [2] it was 159 ± 91.8 nM.

Regarding `CC/C(=C(/c1ccc(OCCNC/C=C/C(=O)N(C)C)cc1)c1ccc2[nH]ncc2c1F)c1ccccc1` [Compound 4, (E)-4-((2-(4-((E)-1-(4-fluoro-1H-indazol-5-yl)-2-phenylbut-1-en-1-yl)phenoxy)ethyl)amino)-N,N-dimethylbut-2-enamide], the figures for the GI50 in assay [1] and in assay [2] were 4.55 ± 3.34 nM and 36.3 ± 16 nM, respectively.

In the case of `CC/C(=C(/c1ccc(OCCNC/C=C/C(=O)N(C)C)cc1)c1ccc2[nH]ncc2c1)c1cc(F)cc(F)c1` [Compound 5, (E)-4-((2-(4-((E)-2-(3,5-difluorophenyl)-1-(1H-indazol-5-yl)but-1-en-1-yl)phenoxy)ethyl)amino)-N,N-dimethylbut-2-enamide], the GI50 in assay [1] stood at 8.44 ± 3.87 nM; in assay [2] it was 81.4 ± 45.8 nM.

Consider `CC/C(=C(/c1ccc(OCCNC/C=C/C(=O)N(C)C)cc1)c1ccc2[nH]ncc2c1)c1ccc(F)c(F)c1` [Compound 6, (E)-4-((2-(4-((E)-2-(3,4-difluorophenyl)-1-(1H-indazol-5-yl)but-1-en-1-yl)phenoxy)ethyl)amino)-N,N-dimethylbut-2-enamide], for which the 50% growth inhibitory concentration (GI50) was found to be 2.93 ± 2.83 nM in assay [1] and 111 ± 124 nM in assay [2].

Regarding `CC/C(=C(/c1ccc(OCCNC/C=C/C(=O)N(C)C)cc1)c1ccc2[nH]ncc2c1)c1cc(F)cc(Cl)c1` [Compound 7, (E)-4-((2-(4-((E)-2-(3-chloro-5-fluorophenyl)-1-(1H-indazol-5-yl)but-1-en-1-yl)phenoxy)ethyl)amino)-N,N-dimethylbut-2-enamide], the 50% growth inhibitory concentration (GI50) in assay [1] turned out to be 1.92 nM; in assay [2] it was 74.1 ± 55.2 nM.

Take `C#CCN(C)C(=O)/C=C/CNCCOc1ccc(/C(=C(/CC)c2ccccc2)c2ccc3[nH]ncc3c2)cc1` [Compound 8, (E)-4-((2-(4-((E)-1-(1H-indazol-5-yl)-2-phenylbut-1-en-1-yl)phenoxy)ethyl)amino)-N-methyl-N-(prop-2-yn-1-yl)but-2-enamide]: the GI50 in assay [1] was 1.59 nM; in assay [2], 22.3 nM.

Consider `C#CCCN(C)C(=O)/C=C/CNCCOc1ccc(/C(=C(/CC)c2ccccc2)c2ccc3[nH]ncc3c2)cc1` [Compound 9, (E)-4-((2-(4-((E)-1-(1H-indazol-5-yl)-2-phenylbut-1-en-1-yl)phenoxy)ethyl)amino)-N-(but-3-yn-1-yl)-N-methylbut-2-enamide], for which the GI50 in assay [1] came out at 5.57 nM; in assay [2] it was 118 nM.

As to `CC/C(=C(/c1ccc(OCCNC/C=C/C(=O)N2CCC2)cc1)c1ccc2[nH]ncc2c1)c1ccccc1` [Compound 10, (E)-4-((2-(4-((E)-1-(1H-indazol-5-yl)-2-phenylbut-1-en-1-yl)phenoxy)ethyl)amino)-1-(azetidin-1-yl)but-2-en-1-one], the GI50 in assay [1] is 2.22 ± 2.34 nM; in assay [2], 21.2 ± 17.2 nM.

For the compound `CC/C(=C(/c1ccc(OCCNC/C=C/C(=O)N2CCCC2)cc1)c1ccc2[nH]ncc2c1)c1ccccc1` [Compound 11, (E)-4-((2-(4-((E)-1-(1H-indazol-5-yl)-2-phenylbut-1-en-1-yl)phenoxy)ethyl)amino)-1-(pyrrolidin-1-yl)but-2-en-1-one], the figures for the 50% growth inhibitory concentration (GI50) in assay [1] and in assay [2] were 0.76 nM and 14 nM, respectively.

For the compound `CC/C(=C(/c1ccc(OCCNC/C=C/C(=O)N2CCCCC2)cc1)c1ccc2[nH]ncc2c1)c1ccccc1` [Compound 12, (E)-4-((2-(4-((E)-1-(1H-indazol-5-yl)-2-phenylbut-1-en-1-yl)phenoxy)ethyl)amino)-1-(piperidin-1-yl)but-2-en-1-one], the GI50 was determined as 1.69 nM in assay [1] and 36.7 nM in assay [2].

`CN(C)C(=O)/C=C/CNCCOc1ccc(/C(=C(\c2ccccc2)C2CCC2)c2ccc3[nH]ncc3c2)cc1` [Compound 13, (E)-4-((2-(4-((E)-2-cyclobutyl-1-(1H-indazol-5-yl)-2-phenylvinyl)phenoxy)ethyl)amino)-N,N-dimethylbut-2-enamide]: the GI50 in assay [1] came to 2.08 ± 1.57 nM; in assay [2], 20 ± 13.7 nM.

As to `CN(C)C(=O)/C=C/CNCCOc1ccc(/C(=C(\c2ccccc2)C2CCC2)c2ccc3[nH]nc(F)c3c2)cc1` [Compound 14, (E)-4-((2-(4-((E)-2-cyclobutyl-1-(3-fluoro-1H-indazol-5-yl)-2-phenylvinyl)phenoxy)ethyl)amino)-N,N-dimethylbut-2-enamide 2,2,2-trifluoro acetate], the GI50 came out at 2.46 ± 1.43 nM in assay [1] and 30.7 ± 4.02 nM in assay [2].

For the compound `CC/C(=C(/c1ccc(OCCNC/C=C/C(=O)N2CCOCC2)cc1)c1ccc2[nH]ncc2c1)c1ccccc1` [Compound 15, (E)-4-((2-(4-((E)-1-(1H-indazol-5-yl)-2-phenylbut-1-en-1-yl)phenoxy)ethyl)amino)-1-morpholinobut-2-en-1-one], the GI50 in assay [1] turned out to be 1.84 ± 1.09 nM; in assay [2], 25.5 ± 13.8 nM.

Turning to `CC/C(=C(/c1ccc(OCCNC/C=C/C(=O)N(C)CC)cc1)c1ccc2[nH]ncc2c1)c1ccccc1` [Compound 16, (E)-4-((2-(4-((E)-1-(1H-indazol-5-yl)-2-phenylbut-1-en-1-yl)phenoxy)ethyl)amino)-N-ethyl-N-methylbut-2-enamide], the GI50 turned out to be 1.66 nM in assay [1] and 21.9 nM in assay [2].

With `CCCN(C)C(=O)/C=C/CNCCOc1ccc(/C(=C(/CC)c2ccccc2)c2ccc3[nH]ncc3c2)cc1` [Compound 17, (E)-4-((2-(4-((E)-1-(1H-indazol-5-yl)-2-phenylbut-1-en-1-yl)phenoxy)ethyl)amino)-N-methyl-N-propylbut-2-enamide], the GI50 in assay [1] amounted to 2.18 nM; in assay [2], 25.2 nM.

For the compound `CC/C(=C(/c1ccc(OCCNC/C=C/C(=O)N(C)CCO)cc1)c1ccc2[nH]ncc2c1)c1ccccc1` [Compound 18, (E)-4-((2-(4-((E)-1-(1H-indazol-5-yl)-2-phenylbut-1-en-1-yl)phenoxy)ethyl)amino)-N-(2-hydroxyethyl)-N-methylbut-2-enamide], the 50% growth inhibitory concentration (GI50) in assay [1] stood at 1.63 ± 1.41 nM; in assay [2], 21.4 ± 15 nM.

As to `CC/C(=C(/c1ccc(OCCNC/C=C/C(=O)N(C)C)cc1)c1ccc2[nH]nc(F)c2c1)c1ccc(F)cc1Cl` [Compound 19, (E)-4-((2-(4-((E)-2-(2-chloro-4-fluorophenyl)-1-(3-fluoro-1H-indazol-5-yl)but-1-en-1-yl)phenoxy)ethyl)amino)-N,N-dimethylbut-2-enamide], the GI50 in assay [1] amounted to 1.58 nM; in assay [2], 18.6 nM.

For the compound `CC/C(=C(/c1ccc(OCCNC/C(C)=C/C(=O)N(C)C)cc1)c1ccc2[nH]ncc2c1)c1ccccc1` [Compound 21, (E)-4-((2-(4-((E)-1-(1H-indazol-5-yl)-2-phenylbut-1-en-1-yl)phenoxy)ethyl)amino)-N,N,3-trimethylbut-2-enamide], the GI50 in assay [1] worked out at 26.6 ± 21.8 nM; in assay [2], 154 ± 51.7 nM.
